18 compounds from PubChem BioAssay AID328 (DTP/NCI, 2004) can be followed below.

This assay has as its system BDF1 mice, P388 leukemia ip, median survival T/C. Description: NCI In Vivo Anticancer Drug Screen. Data for tumor model P388 Leukemia (intraperitoneal) in B6D2F1 (BDF1) mice. Conditions: endpoint: median survival time, higher = longer survival. The essentials:
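Antitumour effect was judged in vivo: survival in drug-treated mice, normalised to that of vehicle-dosed controls, gives the reported T/C.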

Where [1] appears, read: dose: 100.0 mg/kg/injection, schedule: Q01DX009 (ip), vehicle: saline.
Setting [2] is: dose: 100.0 mg/kg/injection, schedule: Q04DX003 (ip), vehicle: saline.
The mark [3] stands for this setting: dose: 200.0 mg/kg/injection, schedule: Q01DX009 (ip), vehicle: saline.
Setting [4] is: dose: 200.0 mg/kg/injection, schedule: Q04DX003 (ip), vehicle: saline.
Setting [5] is: dose: 400.0 mg/kg/injection, schedule: Q04DX003 (ip), vehicle: saline.
Where [6] appears, read: dose: 12.5 mg/kg/injection, schedule: Q01DX009 (ip), vehicle: saline.
[7] abbreviates: dose: 50.0 mg/kg/injection, schedule: Q01DX009 (ip), vehicle: saline.
The mark [8] stands for this setting: dose: 50.0 mg/kg/injection, schedule: Q01DX009 (ip), vehicle: saline with Tween-80.
Setting [9] is: dose: 100.0 mg/kg/injection, schedule: Q01DX009 (ip), vehicle: saline with Tween-80.
The mark [10] stands for this setting: dose: 100.0 mg/kg/injection, schedule: Q04DX003 (ip), vehicle: saline with Tween-80.
The mark [11] stands for this setting: dose: 200.0 mg/kg/injection, schedule: Q01DX009 (ip), vehicle: saline with Tween-80.
The mark [12] stands for this setting: dose: 200.0 mg/kg/injection, schedule: Q04DX003 (ip), vehicle: saline with Tween-80.
The mark [13] stands for this setting: dose: 400.0 mg/kg/injection, schedule: Q04DX003 (ip), vehicle: saline with Tween-80.
The mark [14] stands for this setting: dose: 75.0 mg/kg/injection, schedule: Q01DX009 (ip), vehicle: saline with Tween-80.

Structures are written as SMILES. Where “and” joins values, the source holds several entries; their conditions need not be identical. Equal entries are not always repeated. Toxic doses and inconclusive results are not listed.

For `O=c1[n-]cc(F)c(=O)[nH]1.O=c1[n-]cc(F)c(=O)[nH]1.[NH2-].[NH2-].[Pt+4]`, the T/C was 100 % of control under setting [1]; 120 % of control and 104 % of control under setting [2]; 120 % of control under setting [3]; 113 % of control under setting [4]; 100 % of control under setting [5].
With `[Cl][Ni+2][Cl].[NH-]CCN1CC1`, the T/C reads like this: (dose: 6.25 mg/kg/injection, schedule: Q01DX001 (ip), vehicle: saline) 90 % of control; (dose: 12.5 mg/kg/injection, schedule: Q01DX001 (ip), vehicle: saline) 100 % of control; (dose: 25.0 mg/kg/injection, schedule: Q01DX001 (ip), vehicle: saline) 100 % of control.
`O=[N+]([O-])c1cccnc1Oc1cccc(C(F)(F)F)c1`: the T/C by setting is: (dose: 50.0 mg/kg/injection, schedule: Q01DX001 (ip), vehicle: other) 100 % of control; (dose: 100.0 mg/kg/injection, schedule: Q01DX001 (ip), vehicle: other) 95 % of control; (dose: 200.0 mg/kg/injection, schedule: Q01DX001 (ip), vehicle: other) 86 % of control; (dose: 400.0 mg/kg/injection, schedule: Q01DX001 (ip), vehicle: other) 95 % of control.
Consider `C=C1C(O)C2(O)OCC34C(CC5C(C)=CC(=O)C(O)C5(C)C23)OC(=O)C(O)C14` (stereo unspecified), for which the T/C was 95 % of control (dose: 0.06 mg/kg/injection, schedule: Q01DX009 (ip), vehicle: saline); 106 % of control (dose: 0.25 mg/kg/injection, schedule: Q01DX009 (ip), vehicle: saline); 98 % of control (dose: 1.0 mg/kg/injection, schedule: Q01DX009 (ip), vehicle: saline).
Take `NC(CCC(=O)c1ccccn1)C(=O)O` (stereo unspecified): the T/C by setting is: under setting [6], 103 % of control; (dose: 25.0 mg/kg/injection, schedule: Q01DX009 (ip), vehicle: saline) 117 % of control; under setting [7], 98 % of control; under setting [1], 117 % of control.
In the case of `CCC[CH2][Sn]([CH2]CCC)([O]C(C)=O)[O]C(C)=O`, the T/C (dose: 3.12 mg/kg/injection, schedule: Q01DX009 (ip), vehicle: saline with Tween-80) was 114 % of control; the T/C (dose: 6.12 mg/kg/injection, schedule: Q01DX009 (ip), vehicle: saline) was 154 % of control; the T/C (dose: 6.25 mg/kg/injection, schedule: Q01DX009 (ip), vehicle: saline with Tween-80) was 151 % of control; the T/C (dose: 12.5 mg/kg/injection, schedule: Q01DX009 (ip), vehicle: saline with Tween-80) was 86 % of control; the T/C under setting [6] is 156 % of control.
For `CC(C)(C)P(O)(=S)c1ccccc1` (stereo unspecified) (tested in a mixture with another compound), the T/C reads like this: (dose: 50.0 mg/kg/injection, schedule: Q01DX005 (ip), vehicle: saline) 94 % of control; (dose: 100.0 mg/kg/injection, schedule: Q01DX005 (ip), vehicle: saline) 93 % of control; (dose: 200.0 mg/kg/injection, schedule: Q01DX005 (ip), vehicle: saline) 100 % of control.
In the case of `O=C(O)CC[S-].[Ag+]`, the T/C is, setting by setting: (dose: 25.0 mg/kg/injection, schedule: Q01DX009 (ip), vehicle: saline with Tween-80) 90 % of control; under setting [8], 90 % of control; under setting [9], 86 % of control.
In the case of `CN(C)N/C=N/S(C)(=O)=O`, the T/C by setting is: under setting [7], 101 % of control; under setting [1], 101 % of control; under setting [3], 109 % of control.
Take `COc1ccc(CNCCO)cc1`: the T/C is, setting by setting: (dose: 50.0 mg/kg/injection, schedule: Q04DX003 (ip), vehicle: saline) 108 % of control; under setting [1], 109 % of control; under setting [2], 100 % of control and 116 % of control; under setting [3], 90 % of control; under setting [4], 91 % of control; (dose: 400.0 mg/kg/injection, schedule: Q01DX009 (ip), vehicle: saline) 111 % of control. Moreover, under setting [5], the T/C is 91 % of control and 95 % of control.
As for `COc1ccc(CC(=O)NCCN(CCN(CCO)C(=O)Cc2ccc(OC)cc2)C(=O)Cc2ccc(OC)cc2)cc1`, the T/C is 105 % of control under setting [9]; 120 % of control under setting [10]; 95 % of control under setting [11]; 100 % of control under setting [12]; 100 % of control (dose: 400.0 mg/kg/injection, schedule: Q01DX009 (ip), vehicle: saline with Tween-80); 105 % of control under setting [13].
As for `C/C(Br)=C(/Br)C(=O)O`, the T/C runs as follows: under setting [8], 94 % of control; under setting [9], 97 % of control; under setting [11], 87 % of control.
As for `Nc1nc(=O)[nH]c(N)c1N=O`, the T/C was 98 % of control (dose: 25.0 mg/kg/injection, schedule: Q04DX003 (ip), vehicle: saline with Tween-80); 107 % of control (dose: 50.0 mg/kg/injection, schedule: Q04DX003 (ip), vehicle: saline with Tween-80); 100 % of control under setting [10]; 100 % of control under setting [12]; 102 % of control under setting [13].
As to `O=C(c1ccccc1Cl)n1c2c(c3ccccc31)CCCC2`, the T/C runs as follows: under setting [10], 100 % of control; under setting [12], 104 % of control; under setting [13], 100 % of control.
For the compound `CS(=O)(=O)OCCN(CCOS(C)(=O)=O)c1ccc(C(=O)O)cc1`, the T/C is, setting by setting: (dose: 33.0 mg/kg/injection, schedule: Q01DX009 (ip), vehicle: saline with Tween-80) 195 % of control; under setting [8], 200 % of control; under setting [14], 236 % of control; (dose: 300.0 mg/kg/injection, schedule: Q04DX003 (ip), vehicle: saline with Tween-80) 113 % of control.
Consider `O=c1[nH]cnc2ccc(Cl)cc12`, for which the T/C is 92 % of control (dose: 37.5 mg/kg/injection, schedule: Q01DX009 (ip), vehicle: saline with Tween-80); 92 % of control (dose: 37.5 mg/kg/injection, schedule: Q04DX003 (ip), vehicle: saline with Tween-80); 96 % of control under setting [14].
In the case of `CCCCCCCCCC(=O)CCCCCCC`, the T/C runs as follows: (dose: 50.0 mg/kg/injection, schedule: Q01DX009 (ip), vehicle: other) 100 % of control; (dose: 100.0 mg/kg/injection, schedule: Q01DX009 (ip), vehicle: other) 100 % of control; (dose: 100.0 mg/kg/injection, schedule: Q04DX003 (ip), vehicle: other) 100 % of control; (dose: 118.0 mg/kg/injection, schedule: Q04DX003 (ip), vehicle: other) 104 % of control; (dose: 178.0 mg/kg/injection, schedule: Q04DX003 (ip), vehicle: other) 109 % of control and 118 % of control; (dose: 200.0 mg/kg/injection, schedule: Q01DX009 (ip), vehicle: other) 104 % of control. The T/C is 95 % of control (dose: 266.0 mg/kg/injection, schedule: Q04DX003 (ip), vehicle: other); 95 % of control (dose: 400.0 mg/kg/injection, schedule: Q01DX009 (ip), vehicle: other); 109 % of control and 118 % of control (dose: 400.0 mg/kg/injection, schedule: Q04DX003 (ip), vehicle: other).
For `COc1cc(Nc2nc(Cl)ncc2[N+](=O)[O-])cc(OC)c1OC`, the T/C was 104 % of control (dose: 100.0 mg/kg/injection, schedule: Q01DX001 (ip), vehicle: saline with Tween-80); 100 % of control (dose: 200.0 mg/kg/injection, schedule: Q01DX001 (ip), vehicle: saline with Tween-80); 100 % of control (dose: 400.0 mg/kg/injection, schedule: Q01DX001 (ip), vehicle: saline with Tween-80).
